Like-named read-outs stand apart in the source and are kept apart here.
How the values were obtained:
[1] = target: T1, TRAF6/Uev1A/Ubc13 (Homo sapiens, UniProt Q9Y4K3); assay: TRAF6/Uev1A/Ubc13 plate-based ubiquitin ligase assay; format: biochemical
T1 sequence (Q9Y4K3 1-522): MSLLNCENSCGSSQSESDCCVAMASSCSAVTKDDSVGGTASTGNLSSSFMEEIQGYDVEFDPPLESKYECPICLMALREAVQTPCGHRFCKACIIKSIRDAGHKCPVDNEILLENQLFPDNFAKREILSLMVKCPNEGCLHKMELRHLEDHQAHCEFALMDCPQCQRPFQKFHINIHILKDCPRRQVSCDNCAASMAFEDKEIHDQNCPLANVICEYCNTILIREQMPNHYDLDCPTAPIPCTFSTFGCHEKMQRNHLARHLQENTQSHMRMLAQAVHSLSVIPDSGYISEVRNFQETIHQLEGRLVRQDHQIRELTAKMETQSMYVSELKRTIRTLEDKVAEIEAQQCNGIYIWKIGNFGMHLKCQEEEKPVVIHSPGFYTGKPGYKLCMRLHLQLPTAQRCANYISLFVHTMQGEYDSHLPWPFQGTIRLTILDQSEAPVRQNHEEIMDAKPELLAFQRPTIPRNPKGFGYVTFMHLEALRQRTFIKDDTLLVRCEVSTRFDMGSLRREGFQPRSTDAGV
How it was run: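 Ligase activity was read as luminescence from anti-Flag/HRP detection of Flag-ubiquitin bound to casein-blocked Ni-plates alongside His-ubiquitin after a 1 h room-temperature reaction. Buffer: 62.5 mM Tris pH 7.5, 6.25 mM MgCl2, 1.0 mM DTT, 2 μM ATP; E1, Uev1a/Ubc13 and TRAF6 added last to start. IC50s derived across compound concentrations.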

[2] = system: A549 cells; assay: Cell proliferation PAD assay, A549; format: cell-based; details: 48 hours
How it was run: (§1)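 Proliferation was scored by DAPI imaging of fixed cells, counting live, apoptotic and dead cells, after 48 h compound exposure at 37 °C, 5% CO2. Compound, dosed in duplicate 24 h post-plating (2,000 cells/well), came from 6.3-fold dilutions of a 10 mM stock diluted 500-fold.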

[3] = system: H1299 cells; assay: Cell proliferation PAD assay, H1299; format: cell-based; details: 48 hours
How it was run: as §1

[4] = system: ICAM-1 expression in A549 cells; assay: ICAM assay (IL-1 induced ICAM-1/CD54 expression in A549 cells); format: cell-based, human
Text: The expression of intercellular adhesion molecule (ICAM)-1 in endothelial cells is pivotal in supporting lymphocyte migration across the vascular endothelium. TNF/IL-1 induces the NF-kB pathway in which NF-kB acts as a transcription factor and activation of NF-kB induces ICAM expression. IkB inhibits NF-KB by binding to it and retaining NF-kB in the cytoplasm. Upon cytokine stimulation, several signaling molecule including TRAF6, IKKs, and TAK1 are activated which lead to the phosphorylation of IkB. Phosphorylated IkB is then ubiquitinated by the SCF complex and degraded by proteasome, thereby releasing NF-kB to translocate into the nucleus. In the nucleus, NF-kB binds to DNA and activates transcription of various genes that are involved in inflammation, cell survival, and apoptosis. The ICAM assay is a primary assay for HTS as well as a cell based assay for TRAF6 inhibitors.
The following materials are used 96-well plates; F12K complete medium that includes 10% FBS and 1% P/S (penicillin/streptomycin); 1×PBS; 5 ug/ml IL-1, Human CD54 (CALTAG Laboratory, Cat#MHCD5400-4); anti-mouse-IgG (Jackson Lab, Cat#115-035 146); and A549 cells.
Procedure. 10,000 A549 cells/well were seeded in 100 μl F12K complete medium in a 96-well white plate. The seeded plate was incubate at 37° C. incubator in 5% CO2 overnight. After the overnight incubation, 4 μl of diluted test compound was added and incubated for 1 hour at 37° C. After the 1 hour incubation, 4 μl of 25 ng/ml IL-1 was added to each well and the cells were stimulated at 37° C. for 4 hours.
After stimulation, the cells were stained with CD54 (1:1000 diluted with medium) and anti-mouse IgG (1:1100 diluted with medium) for 1 hour. Subsequently, the medium was removed and each well was washed with 200 μl of PBS three times. Detection of activity was performed by addition of 100 μl/well of lumino substrate.

[5] = Homo sapiens, 6pt, read-out: A549 6pt
[6] = Homo sapiens, NCI-H1299, 6pt, read-out: H1299 6pt
[7] = Homo sapiens, 3pt, read-out: A549 3pt
[8] = Homo sapiens, NCI-H1299, 3pt, read-out: H1299 3pt

O=S(=O)(c1c(Cl)ccc2nonc12)N1CCN(c2ccc(Cl)c(C(F)(F)F)c2)CC1 [compound 182, 5-chloro-4-({4-[4-chloro-3-(trifluoromethyl)phenyl]piperazin-1-yl}sulfonyl)-2,1,3-benzoxadiazole]
IC50 [1]: ≥ 20 µM | IC50 [2, 5]: 1 to 20 µM | IC50 [3, 6]: 1 to 20 µM | IC50 ([4]; Homo sapiens, A549, ICAM assay): ≥ 20 µM

O=S(=O)(c1ccc(Cl)c2nonc12)N1CCN(CCOCCO)CC1 [compound 185, 2-(2-{4-[(7-chloro-2,1,3-benzoxadiazol-4-yl)sulfonyl]piperazin-1-yl}ethoxy)ethanol]
IC50 [1]: ≥ 20 µM | IC50 [2, 5]: 1 to 20 µM | IC50 [3, 6]: 1 to 20 µM | IC50 ([4]; Homo sapiens, A549, ICAM assay): ≥ 20 µM

CN1CCN(S(=O)(=O)c2ccc(Cl)c3nonc23)CC1 [compound 189, 4-chloro-7-[(4-methylpiperazin-1-yl)sulfonyl]-2,1,3-benzoxadiazole]
IC50 [1]: ≥ 20 µM | IC50 [2, 7]: 1 to 20 µM | IC50 [3, 8]: 1 to 20 µM | IC50 ([4]; Homo sapiens, A549, ICAM assay): ≥ 20 µM

O=S(=O)(c1ccc(Sc2cccc3cccnc23)c2nonc12)N1CCN(c2ccccc2)CC1 [compound 217, 8-({7-[(4-phenylpiperazin-1-yl)sulfonyl]-2,1,3-benzoxadiazol-4-yl}thio)quinoline]
IC50 [1]: 1 to 20 µM | IC50 [2, 5]: 1 to 20 µM | IC50 [3, 6]: 1 to 20 µM | IC50 ([4]; Homo sapiens, A549, ICAM assay): ≥ 20 µM

O=S(=O)(c1ccc(Cl)c2nonc12)N1CCC(Oc2ncccn2)CC1 [compound 225, 4-chloro-7-{[4-(pyrimidin-2-yloxy)pipendin-1-yl]sulfonyl}-2,1,3-benzoxadiazole]
IC50 [1]: ≥ 20 µM | IC50 ([2]; 3pt, read-out: A549 3pt): 1 to 20 µM | IC50 ([3]; 3pt, read-out: H1299 3pt): 1 to 20 µM | IC50 ([4]; ICAM assay): ≥ 20 µM

O=S(=O)(c1c(Cl)ccc2nonc12)N1CCC(Oc2ccccc2C(F)(F)F)CC1 [compound 229, 5-chloro-4-({4-[2-(trifluoromethyl)phenoxy]piperidin-1-yl}sulfonyl)-2,1,3-benzoxadiazole]
IC50 [1]: 1 to 20 µM | IC50 [2, 5]: 1 to 20 µM | IC50 [3, 6]: < 1 µM | IC50 ([4]; Homo sapiens, A549, ICAM assay): ≥ 20 µM

CC(=O)C1(c2ccccc2)CCN(c2ccc([N+](=O)[O-])c3nonc23)CC1 [compound 231, 1-[1-(7-nitro-2,1,3-benzoxadiazol-4-yl)-4-phenylpiperidin-4-yl]ethanone]
IC50 [1]: 1 to 20 µM | IC50 [2, 7]: ≥ 20 µM | IC50 [3, 8]: 1 to 20 µM

O=S(=O)(c1ccc(F)c2nonc12)N1CCC(Oc2ccccc2C(F)(F)F)CC1 [compound 232, 4-fluoro-7-({4-[2-(trifluoromethyl)phenoxy]piperidin-1-yl}sulfonyl)-2,1,3-benzoxadiazole]
IC50 [1]: 1 to 20 µM | IC50 [2, 7]: 1 to 20 µM | IC50 [3, 8]: 1 to 20 µM

O=[N+]([O-])c1ccc(N2CCC(Oc3ccccc3C(F)(F)F)CC2)c2nonc12 [compound 233, 4-nitro-7-{4-[2-(trifluoromethyl)phenoxy]piperidin-1-yl}-2,1,3-benzoxadiazole]
IC50 [1]: < 1 µM | IC50 [2, 7]: ≥ 20 µM | IC50 [3, 8]: ≥ 20 µM

O=S(=O)(c1c(Cl)ccc2nonc12)N1CCC(Oc2ncccn2)CC1 [compound 234]
IC50 [1]: ≥ 20 µM | IC50 [2, 7]: 1 to 20 µM | IC50 [3, 8]: 1 to 20 µM | IC50 ([4]; Homo sapiens, A549, ICAM assay): ≥ 20 µM

O=S(=O)(c1cccc2nonc12)N1CCC(Oc2ncccn2)CC1 [compound 235]
IC50 [1]: ≥ 20 µM | IC50 [2, 7]: ≥ 20 µM | IC50 [3, 8]: ≥ 20 µM

O=S(=O)(c1c(N2CCC(Oc3ncccn3)CC2)ccc2nonc12)N1CCC(Oc2ncccn2)CC1 [compound 236, 5-[4-(1,3-pyrimidin-2-yloxy)piperidin-1-yl]-4-{[4-(1,3-pyrimidin-2-yloxy)piperidin-1-yl]sulfonyl}-2,1,3-benzoxadiazole]
IC50 [1]: ≥ 20 µM | IC50 [2, 7]: 1 to 20 µM | IC50 [3, 8]: 1 to 20 µM | IC50 ([4]; Homo sapiens, A549, ICAM assay): ≥ 20 µM

CC1(C)CCN(c2ccc([N+](=O)[O-])c3nonc23)CC1 [compound 242, 4-(4,4-dimethylpipendin-1-yl)-7-nitro-2,1,3-benzoxadiazole]
IC50 [1]: ≥ 20 µM | IC50 [2, 5]: ≥ 20 µM | IC50 [3, 6]: ≥ 20 µM

CC1(C)CCN(S(=O)(=O)c2ccc(F)c3nonc23)CC1 [compound 243, 4-[(4,4-dimethylpiperidin-1-yl)sulfonyl]-7-fluoro-2,1,3-benzoxadiazole]
IC50 [1]: ≥ 20 µM | IC50 [2, 5]: < 1 µM | IC50 [3, 6]: ≥ 20 µM

O=S(=O)(c1ccc(Sc2ccncc2)c2nonc12)N1CCC(O)(c2ccc(Cl)cc2)CC1 [compound 246, 4-(4-chlorophenyl)-1-{[7-(pyridin-4-ylthio)-2,1,3-benzoxadiazol-4-yl]sulfonyl}piperidin-4-ol]
IC50 [1]: 1 to 20 µM | IC50 [2, 5]: ≥ 20 µM | IC50 [3, 6]: 1 to 20 µM

O=S(=O)(Nc1cccc(F)c1F)c1ccc(Cl)c2nonc12 [compound 271, 7-chloro-N-(2,3-difluorophenyl)-2,1,3-benzoxadiazole-4-sulfonamide]
IC50 [1]: 1 to 20 µM | IC50 ([4]; Homo sapiens, A549, ICAM assay): ≥ 20 µM

O=S(=O)(Nc1cccc(F)c1F)c1ccc(F)c2nonc12 [compound 274, N-(2,3-difluorophenyl)-7-fluoro-2,1,3-benzoxadiazole-4-sulfonamide]
IC50 [1]: 1 to 20 µM | IC50 ([4]; Homo sapiens, A549, ICAM assay): ≥ 20 µM

O=C(OCc1ccccc1)N1CCN(c2ccc([N+](=O)[O-])c3nonc23)CC1 [compound 278, benzyl 4-(7-nitro-2,1,3-benzoxadiazol-4-yl)piperazine-1-carboxylate]
IC50 [1]: ≥ 20 µM | IC50 [2, 7]: 1 to 20 µM | IC50 [3, 8]: 1 to 20 µM

Nc1ccc(N2CCN(c3ncc(C(F)(F)F)cc3Cl)CC2)c2nonc12 [compound 279, 7-{4-[3-chloro-5-(trifluoromethyl)pyridin-2-yl]piperazin-1-yl}-2,1,3-benzoxadiazol-4-amine]
IC50 [1]: ≥ 20 µM | IC50 [2, 7]: 1 to 20 µM | IC50 [3, 8]: 1 to 20 µM

O=[N+]([O-])c1ccc(N2CCC(Oc3ncccn3)CC2)c2nonc12 [compound 280, 4-nitro-7-[4-(pyrimidin-2-yloxy)piperidin-1-yl]-2,1,3-benzoxadiazole]
IC50 [1]: ≥ 20 µM | IC50 [2, 7]: ≥ 20 µM | IC50 [3, 8]: ≥ 20 µM

O=[N+]([O-])c1ccc(N2CCC(c3ccncc3)CC2)c2nonc12 [compound 283, 4-nitro-7-(4-pyridin-4-ylpiperidin-1-yl)-2,1,3-benzoxadiazole]
IC50 [1]: ≥ 20 µM | IC50 [2, 7]: ≥ 20 µM | IC50 [3, 8]: ≥ 20 µM

O=[N+]([O-])c1ccc([S+]([O-])c2cccc3cccnc23)c2nonc12 (stereo not shown) [compound 291, 8-[(7-nitro-2,1,3-benzoxadiazol-4-yl)sulfinyl]quinoline]
IC50 [1]: 1 to 20 µM | IC50 [2, 5]: < 1 µM | IC50 [3, 6]: < 1 µM | IC50 ([4]; Homo sapiens, A549, ICAM assay): ≥ 20 µM

CC(C)(C)c1ccc(-c2cccc3nonc23)cc1 [compound 307, 4-(4-Tert-butylphenyl)-2,1,3-benzoxadiazole]
IC50 [1]: ≥ 20 µM | IC50 [2, 5]: ≥ 20 µM | IC50 [3, 6]: ≥ 20 µM

Reference: US20050282818A1, “Ubiquitin ligase inhibitors” (Rigel Pharmaceuticals, Inc., priority 2004, published 2005)
